{"source": "patent US20230338370A1", "about": "“Treatment of Cancer with TOR Kinase Inhibitors” (Signal Pharmaceuticals, LLC, priority 2012, published 2023)", "test_in_all_cases": "Growth inhibition assay for Breast Cancer (BC) Cell lines", "format_in_all_cases": "cell-based", "key": {"BT-20": {"system": "BT-20", "conditions": "Homo sapiens; BT-20, TN; 96 hours, Cell Titer-Glo", "experimental": "(§1) Growth inhibition assay for Breast Cancer (BC) Cell lines. Compounds 1 (a TOR kinase inhibitor set forth herein having molecular formula C16H16N8O) and 2 (a TOR kinase inhibitor set forth herein having molecular formula C17H18N8O2) were dissolved in dimethyl sulfoxide (DMSO) to prepare a 10 mM stock solution. A serial titration was performed to produce a working concentration range of 1.5 µM to 10 mM. Aliquots to produce final concentrations of 1.5 nM to 10 µM were spotted via an acoustic dispenser (EDC ATS-100) into an empty 384-well plate. Compounds 1 and 2 were spotted in a 10-point serial dilution fashion (3-fold dilution) in duplicate within the plate. The DMSO concentration was kept constant for a final assay concentration of 0.1% DMSO. Plates were replicated for use with different cell lines and testing periods. After compound plate replication, all plates were sealed (Agilent ThermoLoc) and stored at -20° C. for up to 1 month. […] When ready for testing, plates were removed from the freezer, thawed, and unsealed just prior to the addition of the test cells. Prior to testing, cells were grown and expanded in culture flasks to provide sufficient amounts of starting material. Cells were then diluted to the appropriate densities and added directly to the compound-spotted 384-well plates. Cells were allowed to grow for 96 hours at 37° C./5% CO2. At the time when compound was added (t0), initial cell number was assessed via a viability assay (Cell Titer-Glo) by quantifying the level of luminescence generated by ATP present in viable cells. After 96 hours, cell viability of compound-treated cells was assessed via Cell Titer-Glo and luminescence measurement. Cell lines were assayed for growth inhibition by Compounds 1 and 2 in at least 3 independent tests. A control cell line (the lung tumor cell line, A549) was included in each of the assays. The compound response against this control cell line was monitored closely to enable comparison of the data generated through the assay period. All data were normalized and presented as a percentage of the DMSO-treated cells. Results were then expressed as a GI50 value. The GI50 value corrects for the cell count at time zero."}, "MDA-MB-231": {"system": "MDA-MB-231", "conditions": "Homo sapiens; MDA-MB-231, TN; 96 hours, Cell Titer-Glo", "experimental": "as §1"}, "HCC2157": {"system": "HCC2157", "conditions": "Homo sapiens; HCC2157, TN; 96 hours, Cell Titer-Glo", "experimental": "as §1"}, "MDA-MB-157": {"system": "MDA-MB-157", "conditions": "Homo sapiens; MDA-MB-157, TN; 96 hours, Cell Titer-Glo", "experimental": "as §1"}, "HCC1937": {"system": "HCC1937", "conditions": "Homo sapiens; HCC1937, TN; 96 hours, Cell Titer-Glo", "experimental": "as §1"}, "HCC1143": {"system": "HCC1143", "conditions": "Homo sapiens; HCC1143, TN; 96 hours, Cell Titer-Glo", "experimental": "as §1"}, "BT-549": {"system": "BT-549", "conditions": "Homo sapiens; BT-549, TN; 96 hours, Cell Titer-Glo", "experimental": "as §1"}, "MDA-MB-436": {"system": "MDA-MB-436", "conditions": "Homo sapiens; MDA-MB-436, TN; 96 hours, Cell Titer-Glo", "experimental": "as §1"}, "MDA-MB-468": {"system": "MDA-MB-468", "conditions": "Homo sapiens; MDA-MB-468, TN; 96 hours, Cell Titer-Glo", "experimental": "as §1"}, "HCC1187": {"system": "HCC1187", "conditions": "Homo sapiens; HCC1187, TN; 96 hours, Cell Titer-Glo", "experimental": "as §1"}, "CAL-51": {"system": "CAL-51", "conditions": "Homo sapiens; CAL-51, TN; 96 hours, Cell Titer-Glo", "experimental": "as §1"}, "CAL-148": {"system": "CAL-148", "conditions": "Homo sapiens; CAL-148, TN; 96 hours, Cell Titer-Glo", "experimental": "as §1"}, "MT-3": {"system": "MT-3", "conditions": "MT-3, TN; 96 hours, Cell Titer-Glo", "experimental": "as §1"}, "CAL-120": {"system": "CAL-120", "conditions": "Homo sapiens; CAL-120, TN; 96 hours, Cell Titer-Glo", "experimental": "as §1"}, "MB157": {"system": "MB157", "conditions": "MB157, TN; 96 hours, Cell Titer-Glo", "experimental": "as §1"}, "HDQ-P1": {"system": "HDQ-P1", "conditions": "Homo sapiens; HDQ-P1, TN; 96 hours, Cell Titer-Glo", "experimental": "as §1"}, "HCC38": {"system": "HCC38", "conditions": "Homo sapiens; HCC38, TN; 96 hours, Cell Titer-Glo", "experimental": "as §1"}, "HS578T": {"system": "HS578T", "conditions": "Homo sapiens, Hs-578T, TN, 96 hours, Cell Titer-Glo", "experimental": "as §1"}, "HCC1806": {"system": "HCC1806", "conditions": "Homo sapiens; HCC1806, TN; 96 hours, Cell Titer-Glo", "experimental": "as §1"}, "CAL-85-1": {"system": "CAL-85-1", "conditions": "Homo sapiens; CAL-85-1, TN; 96 hours, Cell Titer-Glo", "experimental": "as §1"}, "DU4475": {"system": "DU4475", "conditions": "Homo sapiens, DU-4475; DU4475, TN; 96 hours, Cell Titer-Glo", "experimental": "as §1"}, "HCC70": {"system": "HCC70", "conditions": "Homo sapiens; HCC70, TN; 96 hours, Cell Titer-Glo", "experimental": "as §1"}}}
{"smiles": "CCN1C(=O)CNc2ncc(-c3ccc(-c4nc[nH]n4)nc3C)nc21", "note": "[Compound 1, 1-ethyl-7-(2-methyl-6-(1H-1,2,4-triazol-3-yl)pyridin-3-yl)-3,4-dihydropyrazino[2,3-b]pyrazin-2(1H)-one]", "values": [{"measurement": "GI50", "setting": "BT-20", "value": 116, "unit": "nM"}, {"measurement": "GI50", "setting": "MDA-MB-231", "value": 185, "unit": "nM"}, {"measurement": "GI50", "setting": "HCC2157", "value": 51.5, "unit": "nM"}, {"measurement": "GI50", "setting": "MDA-MB-157", "value": 472, "unit": "nM"}, {"measurement": "GI50", "setting": "HCC1937", "value": 161, "unit": "nM"}, {"measurement": "GI50", "setting": "HCC1143", "value": 400, "unit": "nM"}, {"measurement": "GI50", "setting": "BT-549", "value": 146, "unit": "nM"}, {"measurement": "GI50", "setting": "MDA-MB-436", "value": 279, "unit": "nM"}, {"measurement": "GI50", "setting": "MDA-MB-468", "value": 87.2, "unit": "nM"}, {"measurement": "GI50", "setting": "HCC1187", "value": 195, "unit": "nM"}, {"measurement": "GI50", "setting": "CAL-51", "value": 71, "unit": "nM"}, {"measurement": "GI50", "setting": "CAL-148", "value": 187, "unit": "nM"}, {"measurement": "GI50", "setting": "MT-3", "value": 150, "unit": "nM"}, {"measurement": "GI50", "setting": "CAL-120", "value": 182, "unit": "nM"}, {"measurement": "GI50", "setting": "MB157", "value": 346, "unit": "nM"}, {"measurement": "GI50", "setting": "HDQ-P1", "value": 162, "unit": "nM"}, {"measurement": "GI50", "setting": "HCC38", "value": 430, "unit": "nM"}, {"measurement": "GI50", "setting": "HS578T", "value": 286, "unit": "nM"}, {"measurement": "GI50", "setting": "HCC1806", "value": 187, "unit": "nM"}, {"measurement": "GI50", "setting": "CAL-85-1", "value": 88.8, "unit": "nM"}, {"measurement": "GI50", "setting": "DU4475", "value": 237, "unit": "nM"}, {"measurement": "GI50", "setting": "HCC70", "value": 94.2, "unit": "nM"}]}
